What was measured:
Experiment in all cases: relative viability (nuclei count vs DMSO), 5 days (fraction); higher = more cells survive
A549 = system: A549
Method in brief: (§1)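 Relative viability was taken as the ratio of nuclei in treated wells to nuclei in vehicle wells. Lung cancer cell lines in 1536-well plates received compounds by pin tool one day after seeding, either one drug alone or a fixed anchor-drug dose plus five library-drug doses (not always all listed) in √10 steps. Nuclei were counted on 4× images after 5 days of treatment, and values are medians of duplicate plates.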

CAL-12T = system: CAL-12T
Method in brief: as §1

Calu-6 = system: Calu-6
Method in brief: as §1

EBC-1 = system: EBC-1
Method in brief: as §1

IA-LM = system: IA-LM
Method in brief: as §1

LK-2 = system: LK-2
Method in brief: as §1

NCI-H1299 = system: NCI-H1299
Method in brief: as §1

NCI-H1703 = system: NCI-H1703
Method in brief: as §1

NCI-H1650 = system: NCI-H1650
Method in brief: as §1

**Q.** For `NC(=O)Nc1cc(-c2cccc(F)c2)sc1C(=O)N[C@H]1CCCNC1` [AZD7762] + Cc1nc(NC(=O)N2CCC[C@H]2C(N)=O)sc1-c1ccnc(C(C)(C)C(F)(F)F)c1 [Alpelisib] (partner 2 µM), which relative viability (A549; first compound 0.01 µM) is on record?
**A.** 0.748

**Q.** And the relative viability (A549; first compound 0.03162 µM)?
**A.** 0.86

**Q.** What about the relative viability (A549; first compound 0.1 µM) of the same compound?
**A.** 0.83

**Q.** What about the relative viability (A549; first compound 0.3162 µM) of the same compound?
**A.** 0.84

**Q.** And the relative viability (A549; first compound 1 µM)?
**A.** 0.336

**Q.** What about the relative viability (CAL-12T; first compound 0.01 µM) of the same compound?
**A.** 1.3

**Q.** And the relative viability (CAL-12T; first compound 0.03162 µM)?
**A.** 1.18

**Q.** And the relative viability (CAL-12T; first compound 0.1 µM)?
**A.** 1.24

**Q.** And the relative viability (CAL-12T; first compound 0.3162 µM)?
**A.** 0.955

**Q.** And the relative viability (CAL-12T; first compound 1 µM)?
**A.** 0.155

**Q.** What about the relative viability (Calu-6; first compound 0.01 µM) of the same compound?
**A.** 1.03

**Q.** What about the relative viability (Calu-6; first compound 0.03162 µM) of the same compound?
**A.** 0.935

**Q.** What about the relative viability (Calu-6; first compound 0.1 µM) of the same compound?
**A.** 0.881

**Q.** What about the relative viability (Calu-6; first compound 0.3162 µM) of the same compound?
**A.** 0.411

**Q.** What about the relative viability (Calu-6; first compound 1 µM) of the same compound?
**A.** 0.157

**Q.** And the relative viability (EBC-1; first compound 0.01 µM)?
**A.** 0.952

**Q.** And the relative viability (EBC-1; first compound 0.03162 µM)?
**A.** 0.714

**Q.** And the relative viability (EBC-1; first compound 0.1 µM)?
**A.** 0.831

**Q.** What about the relative viability (EBC-1; first compound 0.3162 µM) of the same compound?
**A.** 0.763

**Q.** And the relative viability (EBC-1; first compound 1 µM)?
**A.** 0.367

**Q.** What about the relative viability (IA-LM; first compound 0.01 µM) of the same compound?
**A.** 0.828

**Q.** And the relative viability (IA-LM; first compound 0.03162 µM)?
**A.** 0.702

**Q.** And the relative viability (IA-LM; first compound 0.1 µM)?
**A.** 0.885

**Q.** And the relative viability (IA-LM; first compound 0.3162 µM)?
**A.** 1.07

**Q.** And the relative viability (IA-LM; first compound 1 µM)?
**A.** 0.364

**Q.** And the relative viability (LK-2; first compound 0.01 µM)?
**A.** 1.21

**Q.** What about the relative viability (LK-2; first compound 0.03162 µM) of the same compound?
**A.** 0.946

**Q.** And the relative viability (LK-2; first compound 0.1 µM)?
**A.** 0.976

**Q.** And the relative viability (LK-2; first compound 0.3162 µM)?
**A.** 0.838

**Q.** What about the relative viability (LK-2; first compound 1 µM) of the same compound?
**A.** 0.618

**Q.** And the relative viability (NCI-H1299; first compound 0.01 µM)?
**A.** 1.16

**Q.** What about the relative viability (NCI-H1299; first compound 0.03162 µM) of the same compound?
**A.** 1.01

**Q.** And the relative viability (NCI-H1299; first compound 0.1 µM)?
**A.** 1.03

**Q.** What about the relative viability (NCI-H1299; first compound 0.3162 µM) of the same compound?
**A.** 1.04

**Q.** And the relative viability (NCI-H1299; first compound 1 µM)?
**A.** 0.942

**Q.** What about the relative viability (NCI-H1703; first compound 0.01 µM) of the same compound?
**A.** 0.314

**Q.** And the relative viability (NCI-H1703; first compound 0.03162 µM)?
**A.** 0.224

**Q.** What about the relative viability (NCI-H1703; first compound 0.1 µM) of the same compound?
**A.** 0.231

**Q.** And the relative viability (NCI-H1703; first compound 0.3162 µM)?
**A.** 0.164

**Q.** What about the relative viability (NCI-H1703; first compound 1 µM) of the same compound?
**A.** 0.146

**Q.** What does the source list for `C=C1C(=O)O[C@@H](CCCCCCCC)[C@@H]1C(=O)O` [C-75] + CC(C)C[C@H](NC(=O)[C@H](Cc1ccccc1)NC(=O)c1cnccn1)B(O)O [Bortezomib] (partner 0.002 µM)?
**A.** relative viability (CAL-12T; first compound 0.08 µM): 0.949; relative viability (CAL-12T; first compound 0.253 µM): 0.967; relative viability (CAL-12T; first compound 0.8 µM): 0.758; relative viability (CAL-12T; first compound 2.53 µM): 0.946; relative viability (CAL-12T; first compound 8 µM): 0.928; relative viability (Calu-6; first compound 0.08 µM): 1.01; relative viability (Calu-6; first compound 0.253 µM): 1.16; relative viability (Calu-6; first compound 0.8 µM): 1.02; relative viability (Calu-6; first compound 2.53 µM): 0.92; relative viability (Calu-6; first compound 8 µM): 0.855; relative viability (EBC-1; first compound 0.08 µM): 0.57; relative viability (EBC-1; first compound 0.253 µM): 0.512; relative viability (EBC-1; first compound 0.8 µM): 0.498; relative viability (EBC-1; first compound 2.53 µM): 0.505; relative viability (EBC-1; first compound 8 µM): 0.221; relative viability (IA-LM; first compound 0.08 µM): 0.79; relative viability (IA-LM; first compound 0.253 µM): 0.61; relative viability (IA-LM; first compound 0.8 µM): 0.728; relative viability (IA-LM; first compound 2.53 µM): 0.736; relative viability (IA-LM; first compound 8 µM): 0.428; relative viability (NCI-H1299; first compound 0.08 µM): 1.07; relative viability (NCI-H1299; first compound 0.253 µM): 0.932; relative viability (NCI-H1299; first compound 0.8 µM): 1.01; relative viability (NCI-H1299; first compound 2.53 µM): 1.02; relative viability (NCI-H1299; first compound 8 µM): 1.07; relative viability (NCI-H1650; first compound 0.08 µM): 0.223; relative viability (NCI-H1650; first compound 0.253 µM): 0.212; relative viability (NCI-H1650; first compound 0.8 µM): 0.198; relative viability (NCI-H1650; first compound 2.53 µM): 0.158; relative viability (NCI-H1650; first compound 8 µM): 0.187; relative viability (NCI-H1703; first compound 0.08 µM): 0.506; relative viability (NCI-H1703; first compound 0.253 µM): 0.435; relative viability (NCI-H1703; first compound 0.8 µM): 0.31; relative viability (NCI-H1703; first compound 2.53 µM): 0.292; relative viability (NCI-H1703; first compound 8 µM): 0.192

**Q.** What does the source list for `CC1(C)CCC(c2ccc(Cl)cc2)=C(CN2CCN(c3ccc(C(=O)NS(=O)(=O)c4ccc(N[C@H](CCN5CCOCC5)CSc5ccccc5)c(S(=O)(=O)C(F)(F)F)c4)cc3)CC2)C1` [Navitoclax] + C[C@]1(O)C[C@@H](c2nc(-c3ccc4ccc(-c5ccccc5)nc4c3)c3c(N)nccn32)C1 [Linsitinib] (partner 1 µM)?
**A.** relative viability (A549; first compound 0.005 µM): 0.681; relative viability (A549; first compound 0.01581 µM): 0.669; relative viability (A549; first compound 0.05 µM): 0.511; relative viability (A549; first compound 0.1581 µM): 0.558; relative viability (A549; first compound 0.5 µM): 0.591; relative viability (CAL-12T; first compound 0.005 µM): 0.849; relative viability (CAL-12T; first compound 0.01581 µM): 0.937; relative viability (CAL-12T; first compound 0.05 µM): 0.775; relative viability (CAL-12T; first compound 0.1581 µM): 0.736; relative viability (CAL-12T; first compound 0.5 µM): 0.726; relative viability (Calu-6; first compound 0.005 µM): 0.927; relative viability (Calu-6; first compound 0.01581 µM): 0.984; relative viability (Calu-6; first compound 0.05 µM): 0.965; relative viability (Calu-6; first compound 0.1581 µM): 0.903; relative viability (Calu-6; first compound 0.5 µM): 0.918; relative viability (EBC-1; first compound 0.005 µM): 0.893; relative viability (EBC-1; first compound 0.01581 µM): 1.09; relative viability (EBC-1; first compound 0.05 µM): 0.974; relative viability (EBC-1; first compound 0.1581 µM): 1.05; relative viability (EBC-1; first compound 0.5 µM): 0.86; relative viability (IA-LM; first compound 0.005 µM): 0.551; relative viability (IA-LM; first compound 0.01581 µM): 0.793; relative viability (IA-LM; first compound 0.05 µM): 0.537; relative viability (IA-LM; first compound 0.1581 µM): 0.587; relative viability (IA-LM; first compound 0.5 µM): 0.654; relative viability (LK-2; first compound 0.005 µM): 0.792; relative viability (LK-2; first compound 0.01581 µM): 0.803; relative viability (LK-2; first compound 0.05 µM): 0.805; relative viability (LK-2; first compound 0.1581 µM): 0.51; relative viability (LK-2; first compound 0.5 µM): 0.623; relative viability (NCI-H1299; first compound 0.005 µM): 0.949; relative viability (NCI-H1299; first compound 0.01581 µM): 1; relative viability (NCI-H1299; first compound 0.05 µM): 0.878; relative viability (NCI-H1299; first compound 0.1581 µM): 0.981; relative viability (NCI-H1299; first compound 0.5 µM): 0.984; relative viability (NCI-H1703; first compound 0.005 µM): 0.935; relative viability (NCI-H1703; first compound 0.01581 µM): 1; relative viability (NCI-H1703; first compound 0.05 µM): 1.19; relative viability (NCI-H1703; first compound 0.1581 µM): 1; relative viability (NCI-H1703; first compound 0.5 µM): 0.813

From the supplement of paper PMC10307832
